Assays:
Assay type in all cases: binding
Conditions in all cases: Compound Concentration 10 µM
panel of 442 kinases [1] = molecular target: T1, panel of 442 kinases (Homo sapiens, UniProt P46734)
T1 construct: purchased KINOMEscan
T1 sequence (P46734 1-347): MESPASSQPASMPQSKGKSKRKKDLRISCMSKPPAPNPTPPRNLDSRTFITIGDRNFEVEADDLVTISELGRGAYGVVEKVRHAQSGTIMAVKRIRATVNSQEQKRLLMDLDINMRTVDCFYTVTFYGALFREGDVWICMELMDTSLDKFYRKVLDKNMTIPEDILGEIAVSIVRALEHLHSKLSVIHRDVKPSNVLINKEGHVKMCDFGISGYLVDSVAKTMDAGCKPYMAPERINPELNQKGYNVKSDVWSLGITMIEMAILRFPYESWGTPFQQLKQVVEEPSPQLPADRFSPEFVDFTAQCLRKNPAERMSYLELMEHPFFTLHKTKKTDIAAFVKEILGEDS
Excerpt: (§1) We assessed the selectivity of members of this scaffold using the KINOMEscan methodology across a near comprehensive panel of 442 kinases [[18,27]].

panel of 442 kinases [2] = molecular target: T2, panel of 442 kinases (Homo sapiens, UniProt Q07002)
T2 construct: purchased KINOMEscan
Excerpt: as §1

panel of 442 kinases [3] = molecular target: T3, panel of 442 kinases (Homo sapiens, UniProt Q99759)
T3 construct: purchased KINOMEscan
T3 sequence (Q99759 1-626): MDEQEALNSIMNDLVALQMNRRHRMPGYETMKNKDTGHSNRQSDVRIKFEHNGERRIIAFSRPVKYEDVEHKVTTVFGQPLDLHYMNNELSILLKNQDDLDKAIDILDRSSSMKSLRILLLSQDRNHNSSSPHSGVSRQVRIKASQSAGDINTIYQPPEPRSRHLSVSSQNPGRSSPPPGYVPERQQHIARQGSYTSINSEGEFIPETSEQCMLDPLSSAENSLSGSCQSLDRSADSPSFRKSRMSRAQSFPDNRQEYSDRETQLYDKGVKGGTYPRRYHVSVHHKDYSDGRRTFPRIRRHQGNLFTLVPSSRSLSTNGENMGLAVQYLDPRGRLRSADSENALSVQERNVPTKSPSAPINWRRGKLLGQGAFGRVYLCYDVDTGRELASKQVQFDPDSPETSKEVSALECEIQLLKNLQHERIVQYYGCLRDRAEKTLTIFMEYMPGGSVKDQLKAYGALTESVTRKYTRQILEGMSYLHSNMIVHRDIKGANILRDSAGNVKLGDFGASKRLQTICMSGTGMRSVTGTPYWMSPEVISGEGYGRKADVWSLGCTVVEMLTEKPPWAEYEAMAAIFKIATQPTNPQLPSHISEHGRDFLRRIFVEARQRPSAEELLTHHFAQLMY
Excerpt: as §1

T2 sequence (Q07002 whole entry): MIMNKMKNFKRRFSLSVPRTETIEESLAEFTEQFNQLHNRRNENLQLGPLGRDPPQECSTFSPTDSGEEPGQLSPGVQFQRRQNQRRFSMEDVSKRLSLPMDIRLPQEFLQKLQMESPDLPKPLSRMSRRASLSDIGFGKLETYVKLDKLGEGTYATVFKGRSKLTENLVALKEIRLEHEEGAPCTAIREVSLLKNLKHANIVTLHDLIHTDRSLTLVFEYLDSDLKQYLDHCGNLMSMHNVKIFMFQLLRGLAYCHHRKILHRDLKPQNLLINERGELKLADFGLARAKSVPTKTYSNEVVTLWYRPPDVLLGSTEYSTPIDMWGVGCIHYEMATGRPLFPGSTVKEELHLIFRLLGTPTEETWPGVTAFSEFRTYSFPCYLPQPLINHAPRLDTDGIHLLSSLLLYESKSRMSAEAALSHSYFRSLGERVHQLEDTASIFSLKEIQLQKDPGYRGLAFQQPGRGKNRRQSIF

SMILES	KINOMEscan: MEK3 (panel of 442 kinases [1])	KINOMEscan: PCTK3 (panel of 442 kinases [2])	KINOMEscan: MAP3K3 (panel of 442 kinases [3])
CCOc1cc(C(=O)N2CCC(N3CCN(C)CC3)CC2)ccc1Nc1ncc2c(n1)N(C1CCCC1)c1ccccc1C(=O)N2C [Compound 26]	86	100	100
COc1cc(C(=O)N2CCC(N3CCN(C)CC3)CC2)ccc1Nc1ncc2c(n1)N(C1CCCC1)c1ccccc1C(=O)N2C [Compound 25, 11-cyclopentyl-2-((2-methoxy-4-(4-(4-methylpiperazin-1-yl)piperidine-1-carbonyl)phenyl)amino)-5-methyl-5H-benzo[e]pyrimido[5,4-b][1,4]diazepin-6(11H)-one]	73	100	100
COc1cc(C(=O)N2CCC(N3CCN(C)CC3)CC2)ccc1Nc1ncc2c(n1)N1CCc3cccc(c31)C(=O)N2C [Compound 24]	65	–	98
COc1cc(C(=O)N2CCC(N3CCN(C)CC3)CC2)ccc1Nc1ncc2c(n1)N(C)c1ccccc1C(=O)N2C [15 (LRRK2-IN-1)]	75	100	97
